Consider seven compounds from article PMC8066339, “Optimization of 2-Acylaminocycloalkylthiophene Derivatives for Activity against Staphylococcus aureus RnpA” (Antibiotics, 2021).

Values joined by “and” are separate entries in the source; they are usually repeats but may differ in a detail not shown here. Equal entries are not always repeated. “Also recorded” adds a separate entry of the source. Where two headings read alike, the source gives them in different places. Where only a bound is given, the exact number is not on record here.

One series concerns S. aureus. More on the design: method as in PMID 21347352, PMID 25605356, PMID 31035380. Conditions: previously reported, Figure 1; cited from earlier work.
The subject of another series is S. aureus UAMS-1. Put plainly: Fractional inhibitory concentration (FIC) testing with mupirocin. In kind it is cell-based, Staphylococcus aureus. Conditions: Staphylococcus aureus. The procedure:
Fractional inhibitory concentration (FIC) testing was performed, as previously described. Briefly, each well of a 96-well microtiter plate was inoculated with 10^4 CFU of S. aureus UAMS-1 [42]. Each row of the plate was supplemented with two-fold increasing concentrations of mupirocin (0 µg mL^−1 to 2 µg mL^−1) whereas each column contained two-fold increasing concentrations of putative RnpA inhibitor compound (0.03, 0.0625, 0.125, 0.25, 0.5, 1, or 2× MIC). […] The FIC index was defined by the following formula: FIC = (MIC of Drug A in Combination/MIC of Drug A Alone) + (MIC of Drug B in Combination/MIC of Drug B Alone). A synergistic interaction was defined as a FIC value of ≤0.5, an additive interaction as 0.5–1, no interaction as 1–4 and antagonistic interaction as FIC ≥ 4, as described.

The nature of a further series: MTT cytotoxicity testing. Conditions: human, HEP G2 cells (human liver epithelial cells). The procedure: For the scaffold to have translational significance, it must be non-toxic to human cells. Accordingly, an initial assessment of toxicity was performed using human liver epithelial (HEP G2) cells via a 3-(4,5-dimethylthiazol-2-yl)-2,5-diphenyltetrazolium bromide (MTT) assay in the presence of up to 400 µM of each analog. […] Viability of 70% was used as the cut-off criteria for toxicity (Figure 4, dashed line), according to ISO guidelines, as described in Materials and Methods.
Human liver epithelial cells (HEP G2) were cultured in Dulbecco’s Modified Eagle Medium (DMEM; Fisher Scientific, Hampton, NH) supplemented with 10% heat inactivated fetal bovine serum (FBS; Corning Life Sciences) and 1% penicillin/streptomycin (Thermofisher Scientific). Cells were incubated at 37 °C with 5% CO2 in Nunc (Roskilde, Denmark) tissue culture flasks. Cells were grown in monolayers until exceeding 70% confluency, removed with 0.25% trypsin (Fisher Scientific), resuspended in fresh medium, and used to seed approximately 2.5 × 10^5 cells/mL into each well of a 96 well tissue culture microplate (Nunc) containing 200 µL of fresh medium. Cytotoxicity testing was conducted according to the guidelines of the International Organization for Standardization (ISO) 10993-5:2009. After 24 h of incubation, the cell media was removed, and adherent cells were washed with 1× phosphate buffered saline (PBS). Cell media was supplemented with 5% per volume of compound at final concentrations from 12.5 µM to 400 µM and incubated 20–24 h at 37 °C with 5% CO2. After incubation, medium supplemented with compound was removed from the wells and replaced with 100 µL of fresh culture medium. Then, 10 µL of 12 mM (3-(4,5-dimethylthiazol-2-yl)-2,5-diphenyltetrazolium bromide (MTT) stock reagent (CyQUANT MTT cell proliferation kit; Thermofisher Scientific) was added to each well. After labeling the cells with the MTT reagent, all but 25 µL of medium was removed from the wells, and 50 µL of DMSO was added to each well and mixed thoroughly and cells were incubated at 37 °C with 5% CO2 for 10 min. After incubation, wells were mixed again and using a SPECTRAmax5 microplate reader, absorbance was read at 540 nm. Cells were treated with 125 µg/mL mitomycin C (Fisher Scientific) to serve as a positive control and 2% DMSO as a negative control. […] All compounds were tested in two independent experiments in triplicate and cell viability was expressed as a percent of the negative control.

A further series concerns the target T1, RNase P (RnpA + rnpB) (Staphylococcus aureus, UniProt P0A0H5).
T1 construct: made in house; host or cells: E. coli BL21 (DE3)
T1 sequence (P0A0H5 1-117): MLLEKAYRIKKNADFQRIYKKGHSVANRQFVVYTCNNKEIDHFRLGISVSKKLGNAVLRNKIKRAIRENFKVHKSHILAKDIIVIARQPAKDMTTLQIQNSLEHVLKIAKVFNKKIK
Put plainly: In vitro ptRNA^Tyr processing assay with reconstituted RNase P. Conditions: for IC50: average of at least two tests. In kind it is biochemical. The procedure: (§1) His-tagged RnpA was purified as previously described. E. coli BL21 (DE3) cells harboring plasmid pEXP5-nt containing a hexahistidine tag fused to the N-terminus of S.aureus RnpA coding region were grown in LB supplemented with 50 µg mL^−1 ampicillin to OD600 = 0.6 and induced with 1mM isopropyl β-D-1-thiogalactopyranoside (IPTG) for three hours to induce protein expression. […] Cells were mechanically lysed by three passes at 18,000 psi through a French Pressure Cell Press (SLM-Aminco; Pittsford, NY, USA) and cell debris was removed by centrifugation at 17,000× g for 10 min at 4 °C. Supernatants were collected, filtered through a 0.2 micron syringe filter, then loaded onto a 5 mL HisPur cobalt column (ThermoFisher Scientific, Waltham, MA, U.S.A.) using the BioRad Maximizer Duo-Flow Medium Pressure Chromatography System. Protein was eluted using an imidazole gradient (80 mM to 500 mM). Fractions were assessed for RnpA presence and purity via SDS-PAGE analysis, Coomassie staining and Western blotting using an anti-His antibody (Invitrogen; Grand Island, NY, USA).
rnpB and RNA substrates (spa, ptRNA^Tyr) for RnpA functional assays, as well as mature tRNA were synthesized in vitro, as previously described. Each gene was PCR amplified using S. aureus UAMS-1 chromosomal DNA as a template and the corresponding oligonucleotide primer pairs, in which the forward primers contained an RNA polymerase T7 promoter sequence. The following primer pairs were used in this study (T7 promoter underlined): T7-rnpB forward—[…] and rnpB reverse—[…]; T7-ptRNA^Tyr forward—[…] and ptRNA^Tyr reverse—TGGTGGAG GGGGGCAGATTC; T7-spa forward—[…] CGACGTCCAG and spa reverse—[…]. Resulting PCR products were analyzed on a 0.8% agarose gel and purified using the Qiagen QIAquick Gel Extraction kit, according to the manufacturer’s instructions. In vitro transcription was performed using the TranscriptAid T7 High Yield Transcription kit (Fermentas; Burlington, ON, Canada) following manufacturer’s instructions. Following in vitro transcription, the RNA was treated with DNase I for 90 min and re-purified using the Qiagen RNeasy Mini kit. RNA was quantified using a NanoDrop2000 spectrophotometer.
S.aureus Rnase P activity assays were performed as previously described. Briefly, ptRNA^Tyr and rnpB RNA was denatured by heating to 95 °C for 5 min then slow cooled to room temperature. RNA species were then combined with 2× low salt buffer (50 mM Tris-HCl pH 8.0, 5 mM MgCl2) and incubated for 5 min at 37 °C. Rnase P was reconstituted by mixing an equal molar ratio of His-RnpA and rnpB for 15 min at 37 °C. […] Then, 5 pmol ptRNA^Tyr was added to each reaction and incubated for an additional 30 min at 37 °C. Reactions were stopped with 2× RNA loading dye (Thermo Scientific) and heating to 65 °C for 10 min. Samples were electrophoresed on a 7M urea/8% polyacrylamide gel then stained with 0.5 µg mL^−1 ethidium bromide. The BioRad EZ Gel Doc imaging system was used to visualize the RNA and relative abundance of mature tRNA^Tyr in the DMSO control or in the samples containing compound and analyzed using BioRad Image Lab densitometry software. The percent inhibitory activity of each compound was calculated using the following equation: (% experimental processing/% processing negative control) × 100.

A further series deals with T2, S. aureus RnpA (Staphylococcus aureus, UniProt P0A0H5).
T2 construct: made in house; host or cells: E. coli BL21 (DE3)
T2 sequence (P0A0H5 1-117): T1 sequence (P0A0H5 1-117)
Kind of series: In vitro RnpA mRNA degradation assay (RNase Alert FRET substrate). It counts as biochemical. The procedure: as §1
RnpA-mediated degradation was assessed using the Rnase Alert QC System (Thermofisher Scientific). 20 pmol of His-RnpA was combined with 0.4 μM (final concentration) FRET substrate and either DMSO (negative control) or compound ≤500 µM in 1× Rnase Alert Buffer. Reactions were assembled in 96-well PCR plates (BioRad) and incubated at 37 °C for 30 min in the BioRad CFX 96 Connect Real Time instrument, measuring fluorescence every 2 min at 490 nm excitation/520 nm emission. Percent inhibition of each compound was calculated at the 30 min time-point based on the following formula: (RFU of compound treated RnpA/RFU of DMSO-treated RnpA) × 100.

The subject of series [1] is S. aureus strain UAMS-1. Put plainly: Minimum inhibitory concentration (MIC) testing, CLSI broth microdilution. In kind it is cell-based, Staphylococcus aureus. Conditions: Staphylococcus aureus, UAMS1. The procedure: Staphylococcus aureus strains UAMS-1 is a well-characterized antibiotic susceptible osteomyelitis clinical isolate (Blevins Infect. Immun 2003). For experiments, UAMS-1 was cultured in Mueller Hinton (MH) broth and processed as described below. Escherichia coli strain BL21 (DE3) was cultured in Luria–Bertani (LB) and supplemented with ampicillin (50 µg ml^−1) where indicated.
Minimum inhibitory concentration (MIC) was performed according to the Clinical and Laboratory Standards Institute (CLSI) guidelines. Briefly, individual wells of a 96-well microtiter plate were inoculated with 10^4 colony forming units (CFU) of S. aureus UAMS-1 containing two-fold increasing concentrations (0 µM to 100 µM) of the indicated antibiotic or putative RnpA inhibitor and grown at 37 °C for 16 h in MH broth. The MIC was defined as the lowest concentration of compound in which there was no visible bacterial growth detected by the unaided eye.
On the technique in general: Dilution methods test growth across graded concentrations, often in twofold steps.

Series [2] has as its system S. aureus strain UAMS-1. Details: method as in Colquhoun et al. [34]. Conditions: ref Colquhoun et al. [34]; cited from earlier work.

As to `Cc1cc(/C=C(/C#N)C(=O)Nc2cccc(Br)c2)c(C)n1-c1ccc(C(=O)O)cc1` [RNP1000], the “S. aureus MIC” value in the series on S. aureus was 34 to 69 µM.

The MIC is the least concentration at which growth counts as inhibited. Take `C/C(=C\C(=O)OCCCCCCCCC(=O)O)C[C@@H]1OC[C@H](C[C@@H]2O[C@H]2[C@@H](C)[C@H](C)O)[C@@H](O)[C@H]1O` [Mup, mupirocin, reference compound]: the minimum inhibitory concentration (MIC) in the series on S. aureus UAMS-1 (UAMS1, mupirocin alone, read-out: Mup MIC, Dosed-Individually) is 0.5 µM.

A word on the viability: it is a read-out of living cells in per cent, often relative to untreated cells. The compound `CO[C@@]12[C@H](COC(N)=O)C3=C(C(=O)C(C)=C(N)C3=O)N1C[C@@H]1N[C@@H]12` [Mitomycin C, reference compound] returned a viability at 400 µM in “MTT cytotoxicity testing” of 54.8%.

A word on the IC50: it is the concentration that inhibits the measured activity by half. On to `O=C(Nc1cccc(Cl)c1)c1c(NC(=O)C(F)F)sc2c1CCCCC2` [RNP0017], for which the minimum inhibitory concentration (MIC) is over 500 µM in the series on S. aureus UAMS-1 (UAMS1, compound alone, read-out: Cpd MIC, Dosed-Individually) and over 200 µg/mL with S. aureus strain UAMS-1 [1] (S. aureus strain UAMS-1, read-out: MIC). On RNase P (RnpA + rnpB), the “Inhibition of in vitro RnpA ptRNA processing (in words)” value was “did not appear to display any inhibition; also recorded: weak or no inhibitory activity”. Also, the concentration for half-maximal inhibition (IC50) was over 250 µM at RNase P (RnpA + rnpB) (in vitro ptRNA^Tyr processing, read-out: ptRNA IC50) and 43 µM at S. aureus RnpA (in vitro RnpA-mediated RNA degradation, read-out: mRNA IC50). Also, the “Inhibition of in vitro RnpA-mediated RNA degradation (in words)” value at S. aureus RnpA is “exhibited inhibitory activity”.

For the compound `O=C(CF)Nc1sc2c(c1C(=O)Nc1cccc(Cl)c1)CCCCC2` [RNP0018], the minimum inhibitory concentration (MIC) was over 500 µM with S. aureus UAMS-1 (UAMS1, read-out: Cpd MIC, Dosed-Individually) and over 200 µg/mL with S. aureus strain UAMS-1 [1]. Besides, at RNase P (RnpA + rnpB), the “Inhibition of in vitro RnpA ptRNA processing (in words)” value is “good inhibitory properties”. Further, the IC50 at RNase P (RnpA + rnpB) (ptRNA IC50, in vitro ptRNA^Tyr processing) amounted to 58 µM; on S. aureus RnpA, 33 µM. Also, the “Inhibition of in vitro RnpA-mediated RNA degradation (in words)” value on S. aureus RnpA is “good inhibitory properties; also recorded: exhibited inhibitory activity”.

Regarding `CC1CCN(C(=O)Nc2cc(Cl)cc(Cl)c2)CC1` [JC1], in the series on S. aureus, the “S. aureus MIC” value was 3.4 µM.

On to `O=C(Nc1ccc(Cl)cc1)c1c(NC(=O)C(F)(F)F)sc2c1CCCCC2` [JR1], for which the MIC in the series on S. aureus strain UAMS-1 [2] was 1.25 µM and 0.52 µg/mL. Further, the “S. aureus MIC” value in the series on S. aureus is 1.25 µM.
